From patent US20240374616A1, “USE OF TERPENOIDS IN THE TREATMENT OF MASTOCYTOMA” (ARJIL BIOTECH HOLDING COMPANY LIMITED, priority 2021, published 2024)

Legend:
[1] = Cell Counting Kit-8 assay of cell viability on P815 cells; assay type: cell-based; settings: mouse, P815 mastocytoma cells, read-out: Cell viability (%) Mean ± SD
Experimental: Mouse mastocytoma cells purchased from the Bioresource Collection and Research Center (Hsinchu City, Taiwan) and were cultured with Dulbecco's modified Eagle's (DMEM) medium (Gibco, Carlsbad, California, USA) that was supplemented with 10% fetal bovine serum (Gibco, Carlsbad, California, USA), 100 U/ml penicillin, and 100 μg/ml streptomycin.
(§1) 1×10^5 cells per well of P815 cells were pretreated with terpenoids for 18 h. 5 μL Cell Counting Kit-8 reagent was added to each well, incubating for 4 h followed by optical density determination at 450 nm by a microplate reader (Tecan Sunrise). The mean optical density (OD, absorbance) from four wells of the indicated group was used to calculate the percentage of cell viability as the formula as follows: [(ODexperiment-ODblank)/(ODcontrol-ODblank)]×100%, where ODexperiment is the absorbance of cells treated with […] terpenoid-treated cells, and ODblank is the absorbance of a well with medium only. ODcontrol is the absorbance of cells treated with 0.1% DMSO only.
as §1, with “Mouse mastocytoma cells purchased from the Bioresource Collection and Research Center (Hsinchu City, Taiwan) and were cultured with Dulbecco's modified Eagle's (DMEM) medium (Gibco, Carlsbad, California, USA) that was supplemented with 10% fetal bovine serum (Gibco, Carlsbad, California, USA), 100 U/ml penicillin, and 100 μg/ml streptomycin. 1×10^5” for “1×10^5”, “terpenoids-treated” for “terpenoid-treated”

RBL-2H3 cells = assay: β-hexosaminidase release assay in RBL-2H3 cells; assay type: cell-based; settings: under the safety dose, compared with DMSO, FIG. 1
Experimental: β-hexosaminidase Release Assay
RBL-2H3 cells were seeded into 24 well plate (0.5×10^5 cells/0.5 mL/well), and drug treatment was added every other day for 24 hours. On the third day, 500 μL of Anti-DNP-IgE (0.1 μg/mL) was added overnight. On the fourth day, add 160 μL DNP-BSA (0.1 μg/mL in Tyrode's buffer) to each well and react at 37° C. for 1 hour. For each well in 24 wells, 50 μL of cell supernatant was mixed with 50 μL of P-NAG (triplicates), and 96 well plates were reacted at 37° C. for 1 hour. Add 100 μL of stop buffer and measure the absorbance at 405 nm, which is the β-hexosaminidase data. For 24 well plates, add 300 μL of MTT reagent (0.5 mg/mL) to each well, react at 37° C. for 2 hours, remove the supernatant, add 300 μL of DMSO to each well, and measure the absorbance at 570 nm. The data were calculated by one-way ANOVA with Dunnett's test (* […], ** p<0.01, *** p<0.001, **** p<0.0001), and plotted with Graph pad.
The results from triplicate determinations are presented as the percentage of viable cells. Statistical analysis was performed using one-way ANOVA (Dunnett's multiple comparisons test). Results are presented as the mean ±SD from at least three independent experiments. Statistical significance is indicated (ns: no significance, ** p<0.01, *** p<0.001, **** p<0.0001, compared with DMSO).

P815 mast cell tumor = assay: H&E histopathological analysis of P815 tumor tissues; assay type: in vivo, mice; settings: FIG. 11; 0.06 mg
Experimental: Mice were sacrificed on day 30, and tumors were removed, fixed with 10% formalin, 5% formic acid, and embedded in paraffin. Briefly, tumor sections were stained with hematoxylin and eosin (H&E) and analyzed by microscopy. Tissue sections were dewaxed with Xylene, and then treated with ethanol (100%, 95%, 75%, 50%). Tissues were stained with Hematoxylin for 1 minute and Eosin for 5 minutes.
The mice were administrated 100 μL samples intravenously every 2 days and sacrificed on the 30th day for histopathological examinations.

| Compound | viability at 18 h, 1 mg/mL ([1]; 1 mg/mL) | viability at 18 h, 2 mg/mL ([1]; 2 mg/mL) | viability at 18 h, 3 mg/mL ([1]; 3 mg/mL) | viability at 18 h, 4 mg/mL ([1]; 4 mg/mL) | viability at 18 h, 5 mg/mL ([1]; 5 mg/mL) | β-hexosaminidase release (RBL-2H3 cells) | H&E histological stain of tumor tissues (P815 mast cell tumor) | viability at 18 h, 0.02 mg/mL ([1]; 0.02 mg/mL) | viability at 18 h, 0.04 mg/mL ([1]; 0.04 mg/mL) | viability at 18 h, 0.06 mg/mL ([1]; 0.06 mg/mL) | viability at 18 h, 0.08 mg/mL ([1]; 0.08 mg/mL) | viability at 18 h, 0.1 mg/mL ([1]; 0.1 mg/mL) |
| --- | --- | --- | --- | --- | --- | --- | --- | --- | --- | --- | --- | --- |
| C=C1C(=O)O[C@H]2/C=C(\C)CC3C=C(CC/C=C(\C)CC[C@H]12)C(=O)O3 (stereo partly drawn) [AR100-DS1, Ovatodiolide] | 42.4 ± 1.84% | 39.5 ± 3.09% | 40.8 ± 1.25% | 43.3 ± 0.65% | 41.4 ± 1.81% | significantly lower | – | – | – | – | – | – |
| C=C(CC[C@@H](C(=O)O)[C@H]1CC[C@@]2(C)C3=CC[C@H]4C(C)(C)[C@@H](O)CC[C@]4(C)C3=CC[C@]12C)C(C)C [AR101-DS4, Dehydroeburicoic Acid] | – | – | – | – | – | – | arrest the tumor cell proliferation and cause the tumor cell nucleus aggregation | 181 ± 30.4% | 69.3 ± 4.58% | 49.7 ± 2.62% | 54.3 ± 1.85% | 49.1 ± 2.52% |
